Source: paper PMC5581314, “Targeting the Type II Secretion System: Development, Optimization, and Validation of a High-Throughput Screen for the Identification of Small Molecule Inhibitors” (Frontiers in Cellular and Infection Microbiology, 2017)

biological target: T1, LipA (Acinetobacter baumannii, UniProt A0ABX6CKD6); assay: 4-nitrophenyl myristate lipase assay; IC50 in whole culture, direct inhibition by cell-free supernatant counter-screen; format: cell-based; details: not given
T1 construct: gene lip; secreted LipA from plasmid-encoded lipBA, in culture supernatant

In order of rising IC50:
1. CCCCCCCCCCC[C@@H](C[C@@H]1OC(=O)[C@H]1CCCCCC)OC(=O)[C@H](CC(C)C)NC=O [Orlistat]  0.0406 µM
2. CNCCCN1c2ccccc2CCc2ccccc21 [Desiprimine]  16.5 µM

same assay, conditions: read-out: IC50

In order of falling IC50:
1. CN(CCCN1c2ccccc2CCc2ccccc21)CC(=O)c1ccc(Cl)cc1 [Lofepramine]  21 µM
2. CNCCC=C1c2ccccc2C=Cc2ccccc21 [Norcyclobenzaprine]  16 µM
3. CNCCC=C1c2ccccc2CCc2ccccc21 [Aventyl]  14.5 µM
4. CNCCCC1c2ccccc2C=Cc2ccccc21 [Vivactil]  10 µM
